The values below are quoted from earlier work in paper PMC11528414 (Journal of the American Chemical Society, 2024).

The test system of this series is PANC-1. Particulars: read-out: Reported Anticancer Activity PANC-1 (IC50); reported values.

Each structure is given as a SMILES string.

On to `C[N+]1=C2C=C(NCCc3ccc(O)cc3)C(=O)c3[nH]cc(c32)CC1` [makaluvamine J], for which the IC50 was 54 nM.

What is called IC50 is the concentration needed to halve the response being measured.
